# Experimental data reported in patent publication EP3967319A1, “COMPOSITION FOR SKIN PROTECTION COMPRISING KAEMPFEROL SACCHARIDES COMPOUNDS” (Amorepacific Corporation, priority 2020, dated 2022).
# Tests used:
# [1] = system: GRO, GROα, IL-6, IL-8, MCP-1 to 3 and RANTES; experiment: Cytokine antibody array of conditioned media of skin equivalents (SASP); type: cell-based, human; conditions: skin equivalents from either type of senescent NHDFs, BX-795 100 nM, versus vehicle-treated; FIGS. 11A-11B
# Description: PDK1 inhibition inhibits SASP in skin equivalents. 3D skin models (skin equivalents) were prepared from young NHDFs (PDL 12) or senescent NHDFs induced into senescence by doxorubicin and IGF-1 or repeated plating (replicative senescence, PDL 57), and were exposed to DMSO or BX795. The treatment concentrations are as follows: doxorubicin ([…]), IGF-1 (100 ng/mL), BX-795 (100 nM).
# Mean ± SD (n = 3), ***P < 0.001 compared to DMSO control senescent cells by one-way analysis of variance.
# [2] = system: 3D skin models (skin equivalents); experiment: 3D skin models (skin equivalents) from senescent NHDFs, histology and immunohistochemistry; type: cell-based, human; conditions: BX-795 100 nM, FIGS. 10A-10B
# Description: 3D skin models (skin equivalents) were prepared from young NHDFs (PDL 12) or senescent NHDFs induced into senescence by doxorubicin and IGF-1 or repeated plating (replicative senescence, PDL 57) and were exposed to DMSO or BX795. The treatment concentrations are as follows: doxorubicin ([…]), IGF-1 (100 ng/mL), BX-795 (100 nM).
# The indicated proteins were detected by immunohistochemistry. The results are from three representative experiments. Scale bar = 50 µm.
# Paraffin samples were dewaxed in xylene and rehydrated through a descending ethanol to water series (3 minutes per solution). […] The sections were then incubated with water/1% H2O2 for 30 minutes to block endogenous peroxidase, rinsed with water and PBS/0.05% Tween 20 for 5 minutes, and incubated with PBS/10% goat serum (Dako, Glostrup, Denmark) for 20 minutes before exposure to the following antibodies overnight at 4 °C; Primary antibodies are: anti-KRT 10 (Biolegend, San Diego, CA), anti-FLG (Abcam), anti-MMP-1(Abcam) and anti-Ki67 (Abcam). […]
# Finally, the sections were dehydrated in graded ethanol, cleared in xylene and mounted in Cytoseal 60 (Thermo Scientific, Waltham, MA). […] Tissue sections were incubated with COL17A1 (Abcam) and laminin-5 (Santa Cruz Biotechnology) in Dako fluorescence mounting medium (Dako) at 4 °C overnight. […]
# [3] = system: senescence marker SA-beta-Gal; experiment: Expression of senescence marker SA-beta gal in senescent skin cells (cellular senescence assay kit); type: cell-based, human; conditions: senescent NHDF (passage 37), 3 µM for 7 days; control 78± 5.2
# Description: Normal human dermal fibroblasts (NHDF; Lonza, Switzerland) were cultured in Dulbecco's modified Eagle's medium (DMEM, GIBCO 1210-0038) containing 10% fetal bovine serum, in a 5% CO2 incubator at 37 °C. Cells at passages 6-9 were denoted as young cells, and they were subcultured by 1:5 subculturing until passage 37 to obtain senescent dermal fibroblasts. The senescent skin cells of (1) were treated with DMSO, the compounds repressed by Chemical Formula 1, 2, 3, 4, 5, 6, 7 and 8, kaempferol 3-O-β-rutinoside (Chemical Formula 9) or kaempferol 7-O-β-D-glucopyranoside (Chemical Formula 10) at 3 µM for 7 days. [drawing 30] [drawing 31] On day 8, the cells were washed with PBS and stained with a fixative and a stain provided together with a cellular senescence assay kit (Cell Biolabs, Inc., San Diego, CA, USA) at 37 °C for 16 hours. On the next day, after washing with PBS and applying a 20% glycerol solution, the number of cells stained green was counted and the degree of expression of the senescence marker SA-beta-Gal was evaluated.
# MMP-1 = MMP-1 ELISA assay in UVB-irradiated HDF cells; type: cell-based, human; conditions: UVB 15 mJ/cm^2, 2 µM or 3 µM, 48 hours, compared to Chemical Formulas 5 and 7 or retinoic acid (RA), FIG. 3
# Description: HDF cells were seeded onto a 24-well plate at a concentration of 2.5x10^4 cells/well and were culture for 24 hours under a cell culturing condition. Then, the cells were cultured for 48 hours after treating with a test substance diluted in FBS-free DMEM. After washing with Dulbecco's phosphate-buffered saline (DPBS) and irradiating UVB (15 mJ/cm^2), the medium was replaced with the test substance (2 µM or 3 µM) diluted in DMEM and the cells were cultured for 48 hours. Then, the supernatant was recovered and the amount of MMP-1 was measured using a human total MMP-1 ELISA kit (R&D Systems).
# [4] = system: Human epidermis models (EpiDerm™ EPI-201); experiment: Improvement of skin barrier in 3D organotypic skin epidermis (immunostaining of barrier markers); type: cell-based; conditions: old donor epidermis model, 3 µM for 4 days
# Description: Human epidermis models (EpiDerm™ EPI-201; […] The human epidermis model derived from the old donor was treated with the kaempferol tetrasaccharide represented by Chemical Formula 1 at 3 µM for 4 days. Paraffin blocks were prepared after fixing with 10% neutral buffered formalin.
# After reacting with anti-KRT 10 (Biolegend, San Diego, CA), anti-FLG (Novus Biologicals, Centennial CO, USA), anti-Involucrin and anti-Ki67 (Abcam) antibodies, the expression of the antibodies was analyzed using a microscope. Specifically, the epidermal tissue derived from the young donor (Young) and the epidermal tissue derived from the old donor (Old) were treated with the test substance and then stained with the antibodies described above. The result is shown in FIG. 4, FIGS. 5A-5B and FIGS. 6A-6C. FIGS. 5A-5B and FIGS. 6A-6C show the result of quantifying the result of FIG. 4.
Compound,degree of expression of the senescence marker SA-beta-Gal (number of cells stained green) [3],effect of inhibiting MMP-1 expression (MMP-1),other results
O=C(NCCCNc1nc(Nc2cccc(NC(=O)N3CCCC3)c2)ncc1I)c1cccs1 [BX795],,,"GRO, GROα, IL-6, IL-8, MCP-1 to 3 and RANTES in the conditioned medium [1]: less; epidermal thickness in the skin equivalents ([2]; skin equivalents from senescence-induced NHDFs): preserved epidermal thickness; proliferation marker Ki-67 in the epidermis of the skin equivalents ([2]; skin equivalents from senescent NHDFs): markedly increased"
"C[C@@H]1O[C@@H](OC[C@H]2O[C@@H](Oc3c(-c4ccc(O)cc4)oc4cc(O)cc(O)c4c3=O)[C@H](O[C@@H]3OC[C@@H](O)[C@H](O)[C@H]3O)[C@@H](O)[C@H]2O)[C@H](O)[C@H](O[C@@H]2OC[C@@H](O)[C@H](O)[C@H]2O)[C@H]1O [Chemical Formula 1, kaempferol-3-O-β-D-xylopyranosyl-(1→3)-O-α-L-rhamnopyranosyl-(1→6)-O-β-D-xylopyranosyl-(1→2)-O-β-D-galactopyranoside]",38 ± 10.4,superior effect of inhibiting MMP-1 expression,"epidermal thickness ([4]; FIG. 5A): recovered to levels comparable to those of the young epidermal tissue; expression of the regeneration marker (KI67) ([4]; FIG. 5B): recovered to levels comparable to those of the young epidermal tissue; barrier function (KRT10, FLG, INV) ([4]; FIGS. 6A-6C): recovered to levels comparable to those of the young epidermal tissue"
"C[C@@H]1O[C@@H](OC[C@H]2O[C@@H](Oc3c(-c4ccc(O)cc4)oc4cc(O)cc(O)c4c3=O)[C@H](O[C@@H]3OC[C@@H](O)[C@H](O)[C@H]3O)[C@@H](O)[C@@H]2O)[C@H](O)[C@H](O[C@@H]2OC[C@@H](O)[C@H](O)[C@H]2O)[C@H]1O [Chemical Formula 2, kaempferol-3-O-β-D-xylopyranosyl-(1→3)-O-α-L-rhamnopyranosyl-(1→6)-O-β-D-xylopyranosyl-(1→2)-O-β-D-glucopyranoside]",40 ± 10.4,,
"C[C@@H]1O[C@@H](OC[C@H]2O[C@@H](Oc3c(-c4ccc(O)cc4)oc4cc(O)cc(O)c4c3=O)[C@H](O[C@@H]3O[C@H](CO)[C@@H](O)[C@H](O)[C@H]3O)[C@@H](O)[C@H]2O)[C@H](O)[C@H](O[C@@H]2OC[C@@H](O)[C@H](O)[C@H]2O)[C@H]1O [Chemical Formula 3, kaempferol-3-O-β-D-xylopyranosyl-(1→3)-O-α-L-rhamnopyranosyl-(1→6)-O-β-D-glucopyranosyl-(1→2)-O-β-D-galactopyranoside]",42 ± 9.7,superior effect of inhibiting MMP-1 expression,
"C[C@@H]1O[C@@H](OC[C@H]2O[C@@H](Oc3c(-c4ccc(O)cc4)oc4cc(O)cc(O)c4c3=O)[C@H](O)[C@@H](O)[C@@H]2O)[C@H](O)[C@H](O)[C@H]1O [Kaempferol 3-O-β-rutinoside, kaempferol 3-O-β-rutinoside, reference compound]",81 ± 11.3,,
"O=c1c(O)c(-c2ccc(O)cc2)oc2cc(O[C@@H]3O[C@H](CO)[C@@H](O)[C@H](O)[C@H]3O)cc(O)c12 [Kaempferol 7-0-β-D-glucopyranoside, kaempferol 7-O-β-D-glucopyranoside, reference compound]",79± 9.9,,
O=c1c(O)c(-c2ccc(O)cc2)oc2cc(O)cc(O)c12 [Kaempferol],80 ± 12.1,,
kaempferol-3-O-β-D-xylopyranosyl-(1→3)-O-α-L-rhamnopyranosyl-(1→6)-O-β-D-glucopyranosyl-(1→2)-O-β-D-glucopyranoside [Chemical Formula 4],37 ± 9.1,superior effect of inhibiting MMP-1 expression,
